Values quoted from earlier work as cited in US10188593B2, “Polysaccharide delivery particle” (Spray-Tek, Inc., priority 2016, dated 2019).

conditions: perfume oil ingredients

SMILES | Octanol/water Partition Coefficient (logP)
C=CC(C)CCCC(C)(C)O (centres unmarked) [Dihydromyrcenol] | 3.08
CCCCCCOC(C)=O [Hexyl_acetate] | 2.64
CC(=O)OCCC(C)CCC=C(C)C (centres unmarked) [Citronellyl_acetate] | 3.7
CC=Cc1ccc(O)c(OC)c1 [Isoeugenol] | 1.85
CC(C)c1cccc(C(C)CC=O)c1 (centres unmarked) [Florhydral] | 3.59
CCC=C(C)C(O)CCCCC (centres unmarked) [Undecavertol] | 3.06
CCCCCCCCCCCC#N [Lauronitrile] | 4.84
C=CC(C)(O)CCC=C(C)C (centres unmarked) [Linalool] | 2.44
CCOc1cc(C=O)ccc1O [Ethyl_vanillin] | 1.53
C=CCOC(=O)COCCC(C)C [Allyl_amyl_glycolate] | 2.81
CC(=O)/C=C/C1=C(C)CCCC1(C)C [beta-Ionone] | 4.02
C=C(C)[C@H]1CC=C(C)CC1 [d-Limonene] | 4.38
CC(C)=CCCC(C)CCO (single isomer, unassigned; (-)) [(−)-Citronellol] | 2.76
CCOC(=O)C(C)CC (centres unmarked) [Ethyl_2-methylbutyrate] | 1.91
